We go through two molecules from ChEMBL document CHEMBL1130550, “Sch 207278: a novel farnesyl protein transferase inhibitor from an unidentified fungus” (Bioorg Med Chem Lett, 1997).

Experiment [1] addresses Protein farnesyltransferase (Homo sapiens, UniProt P49354+P49356). Put plainly: Inhibition of Farnesyltransferase. The experiment is classed as protein-complex assay.
The nature of experiment [2]: Inhibition of Geranylgeranyl transferase type I. On the set-up: species or system Homo sapiens.

Consider `O=Cc1cc(O)c(C=O)c(C(=O)c2cccc(O)c2O)c1`, for which the values for the half-maximal inhibitory concentration (IC50) in experiment [1] and in experiment [2] were 3.5 µM and 70 µM, respectively.
The corresponding values for `CC(=O)Oc1cc(C=O)cc(C(=O)c2cccc(OC(C)=O)c2OC(C)=O)c1C=O` are 2.4 µM and 85 µM.

By IC50 is commonly meant the midpoint of a concentration-inhibition curve. Low values mean inhibition by little substance, high ones a need for much substance.
